Earlier results on 1 compound are cited in patent publication US11439651B2 (priority 2020, dated 2022).

One series deals with SARS particles. The note with it: cultured human cells with SARS particles added.
The subject of a further series is SARS. The note with it: pre-treatment with low concentrations; cultured cells or freshly obtained human nasal epithelial cells.

`CCCCCCCCCCCCC/C=C/[C@@H](O)[C@@H](N)CO` [sphingosine]: the cellular infection entry in the series with SARS particles is given as “prevented cellular infection”. The “adhesion of and infection with the virus” value with SARS was “prevented adhesion of and infection with the virus”.
